This is an account of results in article PMC6874683, “Pyrrothiogatain acts as an inhibitor of GATA family proteins and inhibits Th2 cell differentiation in vitro” (Scientific Reports, 2019).

Molecules are shown by their SMILES. Where “and” joins values, the source holds several entries; their conditions need not be identical. Identical values can stand only once.

In one test the target is T1, GATA5 (Homo sapiens, UniProt Q9BWX5).
T1 construct: we tried to synthesize their full-length proteins using the cell-free system; made in house; host or cells: wheat cell-free protein synthesis system (WEPRO1240 kit)
T1 sequence (Q9BWX5 whole entry, species assumed): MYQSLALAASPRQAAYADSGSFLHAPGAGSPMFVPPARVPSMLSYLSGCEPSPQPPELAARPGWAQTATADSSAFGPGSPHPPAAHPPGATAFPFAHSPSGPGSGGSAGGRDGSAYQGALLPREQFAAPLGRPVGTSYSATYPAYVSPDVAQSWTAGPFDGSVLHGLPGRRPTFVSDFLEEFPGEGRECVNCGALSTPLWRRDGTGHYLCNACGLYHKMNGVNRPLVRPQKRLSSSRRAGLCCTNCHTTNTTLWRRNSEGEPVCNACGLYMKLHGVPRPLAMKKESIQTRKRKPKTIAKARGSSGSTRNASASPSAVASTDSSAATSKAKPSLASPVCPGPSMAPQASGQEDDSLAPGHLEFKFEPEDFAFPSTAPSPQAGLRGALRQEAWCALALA
Nature of the test: AlphaScreen DNA-binding assay, GATA5. Particulars: pyrrothiogatain 0 to 200 µM. The procedure:
For the protein-DNA binding assay on a 384-well AlphaPlate (Perkin Elmer), 10 μL of bait protein mixture containing 1 µL FLAG-tagged protein in AlphaScreen Buffer (100 mM Tris-HCl (pH 8.0), 150 mM NaCl, 0.1% Tween 20, and 1 mg/mL BSA) and 5 µL biotinylated oligonucleotide (0–10 µM final concentration) in AlphaScreen Buffer were dispended into the AlphaPlate. Then, the plate was incubated at 26 °C for 1 h. After incubation, 10 μL of the detection mixture containing 0.4 µg/mL Anti-DYKDDDDK antibody (1E6, Wako), 0.1 μL streptavidin-conjugated AlphaScreen donor beads, and 0.1 μL protein A-conjugated AlphaScreen acceptor beads in AlphaScreen Buffer was mixed and incubated at 26 °C for 1 h, and then, the AlphaScreen signal was detected using an EnVision device with the AlphaScreen signal detection program (PerkinElmer).
For the AlphaScreen-based chemical library screening, we used a diverse set of 9,600 synthesized chemicals established by the Drug Discovery Initiative (The University of Tokyo, Tokyo, Japan). All chemical compounds (10 mM) were dissolved in DMSO, and were pre-dispensed into a 384-well Alphaplate (250 nL/well). […] The AlphaScreen signal was detected using an EnVision device with the AlphaScreen signal detection program (PerkinElmer). […]

A further test deals with T2, GATA3-SOX4 interaction (Homo sapiens, UniProt P23771).
T2 construct: we synthesized the recombinant full-length GATA3 protein with an N-terminal FLAG tag using the wheat cell-free system; made in house; host or cells: wheat cell-free protein synthesis system (WEPRO1240 kit), BirA added for biotinylation
T2 sequence (P23771 whole entry): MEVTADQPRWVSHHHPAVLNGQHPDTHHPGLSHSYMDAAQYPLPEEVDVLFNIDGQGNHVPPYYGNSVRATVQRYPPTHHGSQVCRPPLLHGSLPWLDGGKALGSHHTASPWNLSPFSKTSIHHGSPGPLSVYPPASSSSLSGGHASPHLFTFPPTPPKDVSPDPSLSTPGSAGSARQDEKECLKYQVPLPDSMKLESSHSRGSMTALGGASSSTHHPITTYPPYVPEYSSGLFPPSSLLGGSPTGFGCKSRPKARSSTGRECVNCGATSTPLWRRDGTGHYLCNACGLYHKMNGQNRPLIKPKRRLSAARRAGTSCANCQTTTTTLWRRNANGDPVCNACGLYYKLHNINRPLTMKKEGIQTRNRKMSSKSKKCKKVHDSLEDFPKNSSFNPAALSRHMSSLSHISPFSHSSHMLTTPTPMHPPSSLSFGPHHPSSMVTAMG
Nature of the test: AlphaScreen binding assay of GATA3 and SOX4. Particulars: pyrrothiogatain 0 to 100 µM. The method, then:
The GATA3 protein has been reported to directly interact with SOX4[22]. We next investigated whether pyrrothiogatain interrupted the interaction between GATA3 and SOX4. […] Interaction between biotin-labelled SOX4 and FLAG-GATA3 was analysed by the AlphaScreen system (Fig. 4B).
Figure 4 Pyrrothiogatain inhibits the GATA3–SOX4 interaction. (A) Immunoblot analysis of biotin fused recombinant SOX4 (Biotin-SOX4) synthesized by the wheat cell-free system. The whole translational mixture (W) and the supernatant (S) were analysed using an anti-biotin antibody. (B) A schematic diagram of the binding assay to detect the direct binding between GATA3 and SOX4. When FLAG-tagged GATA3 binds with biotin fused SOX4, AlphaScreen beads generate a luminescent signal. (C) The binding assay of GATA3 and SOX4. The luminescence signals were detected by AlphaScreen technology. FLAG-DHFR was used as a control. (D) The inhibition assay of the binding of GATA3 and SOX4 in the presence of various concentrations of pyrrothiogatain (0 to 100 µM). The binding activity was calculated from the AlphaScreen signal. (E) The binding of recombinant GATA3 with SOX4 in the presence of pyrrothiogatain (0 to 100 µM) was assessed by immunoprecipitation assay. […] In (C,D), all data are expressed as individual points of three independent experiments with error bars indicating standard deviation.
(In Alpha technology, singlet oxygen from a donor bead excites a nearby acceptor bead.)

Test [1] deals with Th2 cytokine and GATA3 mRNA. As to the kind of experiment: Quantitative RT-PCR, naive CD4+ T cells under Th2 conditions. The test is classed as cell-based, mouse. Particulars: 5 days. The method, then:
C57BL/6 mice were purchased from Clea (Clea Japan, Inc., Tokyo, Japan). Total CD4^+ T cells isolated from mouse spleen were prepared using a FITC anti-mouse CD4 antibody (Cat#100510, RM4–5, BioLegend) and anti-FITC-microbeads (Cat#130-097-050, Miltenyi Biotec). Naive CD4^+ T cells (CD44^low, CD62L^high) were prepared using a MojoSort Mouse CD4 T cell Isolation Kit (Cat#480033), BioLegend). Biotinylated anti-CD44 (Cat#103004, IM7) and anti-CD25 antibodies (Cat#102004, PC61) were purchased from BioLegend. CD4^+ T cells (7.5 × 10^5) were stimulated using immobilized anti-TCR-β mAb (3 µg/mL, H57–597, BioLegend) plus an anti-CD28 mAb (1.0 µg/mL, cat#40–0281, TONBO Biosciences) for 2 days, and then, the cells were further expanded under similar conditions for an additional 3 days. IL-2 conditions: IL-2 (10 ng/mL, Pepro Tech); Th2 conditions: IL-2 (10 ng/mL, Pepro Tech), IL-4 (1 ng/mL, Pepro Tech), and anti-IFN-γ mAb (2.5 µg/mL, cat#40–731, TONBO Biosciences). Th1 conditions: IL-2 (10 ng/mL, Pepro Tech), IL-12 (1 ng/mL, Pepro Tech), and anti-IL-4 mAb (2.5 µg/mL, cat#40–731, TONBO Biosciences). The cultured cells were subjected to intracellular staining, ELISA assay, and RT-PCR. All animal experiments received approval from the Ehime University Administrative Panel for Animal Care. All animal care was conducted in accordance with the guidelines of Ehime University. […]

In the case of `Cc1ccc(C)n1-c1ccsc1C(=O)O` [Pyrrothiogatain, 3-(2,5-dimethyl-1H-pyrrol-1-yl)thiophene-2-carboxylic acid], the IC50 at GATA5 is ~50 µM and 49.5 µM; on GATA3-SOX4 interaction it was 95.2 µM. For the same compound, in test [1] (30 and 80 µM), the “mRNA expression of IL-4, IL-5 and IL-13 (RT-qPCR)” value was “Decreased”. In test [1], the “Expression of GATA3, mRNA level” value is “not influenced”.

As usually defined, the IC50 is the concentration at which inhibition is half-maximal.
